Key:
[1] = test system: horny layer; test: Skin conductance (water content of horny layer) after two-week coating on cheeks; type: in vivo, women; parameters: key: conductance meter reading; ≤5 = severe roughness, ≥20 = no roughness; details: Invention Product 1: vaseline and compound 3:1 by weight; two weeks; 20° C., 40% humidity; 5 and smaller = severe roughness, 20 or greater = no substantial roughness
Excerpt: (§1) Compounds Ia1 -Ia18 prepared respectively in Referential Examples 1, 2 and 3 and following the procedures of these referential examples, compounds Ib1 -Ib5 prepared respectively in Referential Example 4 and following the procedure of the referential example, compounds Id1 -Id5 prepared respectively in Referential Example 5 and following the procedure of the referential example, compounds Ie1 -Ie4 prepared respectively in Referential Examples 6-9, and conventional compounds Ic1 -Ic13, Ie5 -Ie14 and II1 -II12 were used separately. Mixtures (Invention Products 1), each of which had been formulated by mixing vaseline and the compound (I or II) at a weight ratio of 3:1, and vaseline (Comparative Product 1) were evaluated in skin conductance and skin roughness by the following methods.
(§2) Chosen as volunteers in winter were 10 women of 20-50 years of old who had skin roughness on their both cheeks. Different external skin care preparations were coated separately on the left and right cheeks of each volunteer for two weeks. On the following day of the completion of the two-week coating test, tests were conducted with respect to the following properties.
After washing the face with warm water of 37° C., each volunteer was allowed to rest for 20 minutes in a room which was air-conditioned at 20° C. and 40% humidity. The water content of their horny layer was measured by a skin conductance meter (manufactured by IBS Company). A smaller conductance value indicates greater skin roughness. Conductance values of 5 and smaller indicate severe skin roughness. On the contrary, no substantial skin roughness is observed where this value is 20 or greater.

[2] = test system: skin roughness; test: Score of skin roughness, visual ranking after two-week coating on cheeks; type: in vivo, women; details: average, 4 = severe
Excerpt: as §1, §2
Skin roughness was observed visually and ranked in accordance with the following standard. Each score was indicated by an average value.
Score Ranking of skin roughness
0 No skin roughness was observed.
1 Slight skin roughness was observed.
2 Skin roughness was observed.
3 Rather severe skin roughness was observed.
4 Severe skin roughness was observed.
Using separately the compounds used in Example 1, external skin care preparations (emulsified cosmetic preparations) of their corresponding compositions shown below in Table 2 were formulated. Their effects for the improvement of skin roughness were evaluated in the same manner as in Example 1.

[3] = Invention product 2: emulsified cosmetic, compound 1.0 wt. %, glyceryl ether 2.0 wt. %, 0 = none
[4] = Invention product 3: emulsified cosmetic, compound 1.0 wt. %, arginine monocetylphosphate 2.0 wt. %, 0 = none
[5] = Invention product 4: emulsified cosmetic, compound 1.0 wt. %, polyoxyethylene (20) sorbitan stearate 1.0 and sorbitan monostearate 1.0 wt. %, 0 = none

| SMILES | Skin conductance [1] | Score of skin roughness [2, 3] | Score of skin roughness [2, 4] | Score of skin roughness [2, 5] | Score of skin roughness ([2]; Invention Product 1: vaseline and compound 3:1 by weight, two weeks, 0 = no roughness) |
| --- | --- | --- | --- | --- | --- |
| CCCCCCCCCCCCCCCCCC(=O)N(CC(=O)O)CC(O)COCCCCCCCCCCCCCC (stereo not drawn) [Compound Ic1] | 14 | 0.7 | 0.9 | 1.2 | – |
| CCCCCCCCCCCCCCCCOCC(O)CN(C(=O)CCCCCCCCCCCCCCC)C(CC(=O)O)C(=O)O (stereo not drawn) [Compound Ic10] | 15 | 0.6 | 0.8 | 1.1 | – |
| CCCCCCCCCCCCCCCCOCC(O)CN(CCCO)C(=O)CCCCCCCCCCCCCCC (stereo not drawn) [Compound Ia1, N-(3-hexadecyloxy-2-hydroxypropyl)-N-3-hydroxypropylhexadecanamide] | 20 | 0.2 | 0.4 | 0.8 | – |
| CCCCCCCCCCOCC(O)CN(CCOP(=O)(O)OCCNCCc1ccccc1)C(=O)CCCCCCCCC (stereo not drawn) [Compound Ie10] | 11 | 1.0 | 1.2 | 1.8 | – |
| CCCCCCCCCCCCCCCCCC(=O)N(CC(=O)O)CC(O)COCCCCCCCCCCCCCC (stereo not drawn) [Compound Ic2] | 15 | 0.6 | 0.8 | 1.1 | – |
| CCCCCCCCCCCCCCCCOCC(O)CN(C(=O)CCCCCCCCCCCCCCC)C(C)C(=O)O (stereo not drawn) [Compound Ic5] | 13 | 0.8 | 1.0 | 1.3 | – |
| CCCCCCCCCCCCCCCCCC(=O)N(CCO)CC(O)CCCCCCCCCC (stereo not drawn) [Compound Id4] | 17 | 0.3 | 0.5 | 0.8 | – |
| CCCCCCCCCCC(O)CN(CCO)C(=O)CCCCCCCCC (stereo not drawn) [Compound Id3] | 13 | 0.5 | 0.8 | 1.1 | – |
| CCCCCCCCCCCCCCCCOCC(CN(CCOP(=O)([O-])OCC[N+](C)(C)C)C(=O)CCCCCCCCCCCCCCC)OP(=O)([O-])OCC[N+](C)(C)C (stereo not drawn) [Compound Ie14] | 10 | 1.2 | 1.4 | 1.9 | – |
| CCCCCCCCCCCCCCCCCCOCC(O)CN(CCCCCCO)C(=O)CCCCCCCCCC (stereo not drawn) [Compound Ia8] | 13 | 0.5 | 0.7 | 1.1 | – |
| CCCCCCCCCCCCCCCCOCC(O)CN(CCOCCO)C(=O)CCCCCCCCCCCCCCC (stereo not drawn) [Compound Ib1, N-(3-hexadecyloxy-2-hydroxypropyl)-N-2-hydroxyethoxyethylhexadecanamide] | 20 | 0.1 | 0.2 | 0.7 | – |
| CCCCCCCCCCCCCCCCCCOCC(O)CN(C(=O)CCCCCCCCCCCCCCCCC)C(C)(CO)CO (stereo not drawn) [Compound Ia14] | 23 | 0.1 | 0.3 | 0.6 | – |
| CCCCCCCCCCCCCCCCCC(=O)N(CC(=O)O)CC(O)CCCCCCCCCCCCCCCC (stereo not drawn) [Compound Ic3] | 11 | 1.0 | 1.3 | 1.6 | – |
| CCCCCCCCCCCCCCCCCC(=O)N(CCO)CC(O)CCCCCCCCCCCCCC (stereo not drawn) [Compound Id1, N-(2-hydroxyethyl)-N-2-hydroxyhexa-decyloctadecanamide] | 21 | 0.2 | 0.4 | 0.7 | 1.0 |
| CCCCCCCC/C=C\CCCCCCCCOCC(O)CN(CCOP(=O)([O-])OCC[N+](C)(C)C)C(=O)CCCCCCCCCCCCCCCCC (stereo not drawn) [Compound Ie12] | 13 | 0.9 | 0.9 | 1.5 | – |
| CCCCCCCCCCOCC(O)CN(CC(O)COCCCCCCCCCC)C(C)=O (stereo not drawn) [Compound II10] | 9 | 0.8 | 1.1 | 1.2 | – |
| CCCCCCCCCCCCCCCCCCOCC(O)CN(CCOCCO)C(=O)CCCCCCCCCCCCCCCCC (stereo not drawn) [Compound Ib5] | 23 | 0.2 | 0.4 | 0.8 | – |

From patent publication US4985547A, “External skin care preparation” (Kao Corporation, priority 1987, dated 1991)
